Test results: PMC6273472, “Design, Synthesis and Biological Evaluation of 6-(2,6-Dichloro-3,5-dimethoxyphenyl)-4-substituted-1H-indazoles as Potent Fibroblast Growth Factor Receptor Inhibitors” (Molecules, 2016)
Where “and” joins values, the source holds several entries; their conditions need not be identical. Equal entries are not always repeated.

Tests used:
FGFR1 = FGFR1 (Homo sapiens, UniProt P11362); assay: ELISA kinase assay (FGFR1 enzymatic assay); assay type: biochemical; conditions: for inhibition at 0.01 µM: 0.01 μmol/L compound; for inhibition at 0.01 µM / inhibition at 0.1 µM / inhibition at 1 µM: read-out: Enzyme Inhibition (%); for inhibition at 0.1 µM: 0.1 μmol/L compound; for inhibition at 1 µM: 1 μmol/L compound; for IC50: mean ± SD, two separate experiments
Description: The effects of compounds on the activities of FGFR1 kinases were determined using enzyme-linked immunosorbent assays (ELISAs) with purified recombinant proteins. Briefly, 20 μg/mL poly (Glu, Tyr)4:1 (Sigma, St. Louis, MO, USA) was pre-coated in 96-well plates as a substrate. A 50-μL aliquot of 10 μmol/L ATP solution diluted in kinase reaction buffer (50 mmol/L HEPES [pH 7.4], 50 mmol/L MgCl2, 0.5 mmol/L MnCl2, 0.2 mmol/L Na3VO4, and 1 mmol/L DTT) was added to each well; 1 μL of various concentrations of compounds diluted in 1% DMSO (v/v) (Sigma) were then added to each reaction well. DMSO (1%, v/v) was used as the negative control. The kinase reaction was initiated by the addition of purified tyrosine kinase proteins diluted in 49 μL of kinase reaction buffer. After incubation for 60 min at 37 °C, the plate was washed three times with phosphate-buffered saline (PBS) containing 0.1% Tween 20 (T-PBS). Anti-phosphotyrosine (PY99) antibody (100 μL; 1:500, diluted in 5 mg/mL BSA T-PBS) was then added. After a 30-min incubation at 37 °C, the plate was washed three times, and 100 μL horseradish peroxidase-conjugated goat anti-mouse IgG (1:2000, diluted in 5 mg/mL BSA T-PBS) was added. The plate was then incubated at 37 °C for 30 min and washed 3 times. A 100-μL aliquot of a solution containing 0.03% H2O2 and 2 mg/mL o-phenylenediamine in 0.1 mol/L citrate buffer (pH 5.5) was added. The reaction was terminated by the addition of 50 μL of 2 mol/L H2SO4 as the color changed, and the plate was analyzed using a multi-well spectrophotometer (SpectraMAX 190, Molecular Devices, Palo Alto, CA, USA) at 490 nm. […] The IC50 values were calculated from the inhibition curves in two separate experiments.

Sequence of FGFR1 (P11362 22-822): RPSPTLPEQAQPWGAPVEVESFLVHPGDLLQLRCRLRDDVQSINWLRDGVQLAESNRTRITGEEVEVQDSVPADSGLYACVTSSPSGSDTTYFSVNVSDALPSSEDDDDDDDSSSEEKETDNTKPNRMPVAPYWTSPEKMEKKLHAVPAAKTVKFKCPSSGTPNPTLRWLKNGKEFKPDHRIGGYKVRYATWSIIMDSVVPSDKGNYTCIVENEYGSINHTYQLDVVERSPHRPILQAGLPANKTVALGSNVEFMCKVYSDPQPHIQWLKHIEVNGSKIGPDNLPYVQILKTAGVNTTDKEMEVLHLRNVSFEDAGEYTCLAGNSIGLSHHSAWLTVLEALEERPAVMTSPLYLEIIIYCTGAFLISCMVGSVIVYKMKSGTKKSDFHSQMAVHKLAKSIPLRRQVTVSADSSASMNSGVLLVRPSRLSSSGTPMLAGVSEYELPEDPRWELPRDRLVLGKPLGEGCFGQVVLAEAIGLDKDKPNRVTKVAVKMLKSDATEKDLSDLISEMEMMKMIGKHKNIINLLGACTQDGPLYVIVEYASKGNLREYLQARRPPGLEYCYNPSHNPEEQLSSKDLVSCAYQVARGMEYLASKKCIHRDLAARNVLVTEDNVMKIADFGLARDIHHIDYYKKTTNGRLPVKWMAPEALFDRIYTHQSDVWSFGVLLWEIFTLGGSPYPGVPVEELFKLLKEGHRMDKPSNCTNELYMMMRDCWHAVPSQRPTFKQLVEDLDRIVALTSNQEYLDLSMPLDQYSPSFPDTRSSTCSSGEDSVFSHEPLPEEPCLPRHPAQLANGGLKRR

SMILES | inhibition at 0.01 µM (FGFR1) [%] | inhibition at 0.1 µM (FGFR1) [%] | inhibition at 1 µM (FGFR1) [%] | IC50 (FGFR1) | melting point [°C]
COc1cc(OC)c(Cl)c(-c2cc(C(=O)Nc3ccccc3)c3cn[nH]c3c2)c1Cl [Compound 10a, 6-(2,6-Dichloro-3,5-dimethoxyphenyl)-N-phenyl-1H-indazole-4-carboxamide] | 27.3 | 58.8 | 84.1 | 69.1 ± 19.8 nM | 115 to 117
COc1cc(OC)c(Cl)c(-c2cc(C(=O)Nc3cccc(C(C)=O)c3)c3cn[nH]c3c2)c1Cl [Compound 10b, N-(3-Acetylphenyl)-6-(2,6-dichloro-3,5-dimethoxyphenyl)-1H-indazole-4-carboxamide] |  | 76.4 | 82.4 |  | 
COc1cc(OC)c(Cl)c(-c2cc(C(=O)Nc3ccc(C(C)=O)cc3)c3cn[nH]c3c2)c1Cl [Compound 10c, N-(4-Acetylphenyl)-6-(2,6-dichloro-3,5-dimethoxyphenyl)-1H-indazole-4-carboxamide] |  | 32.2 | 52.9 |  | 
COc1cccc(NC(=O)c2cc(-c3c(Cl)c(OC)cc(OC)c3Cl)cc3[nH]ncc23)c1 [Compound 10d, 6-(2,6-Dichloro-3,5-dimethoxyphenyl)-N-(3-methoxyphenyl)-1H-indazole-4-carboxamide] |  | 57 | 78.4 |  | 
COc1ccc(NC(=O)c2cc(-c3c(Cl)c(OC)cc(OC)c3Cl)cc3[nH]ncc23)cc1 [Compound 10e, 6-(2,6-Dichloro-3,5-dimethoxyphenyl)-N-(4-methoxyphenyl)-1H-indazole-4-carboxamide] |  | 11.9 | 68.5 |  | 
COc1cccc(NC(=O)c2cc(-c3c(Cl)c(OC)cc(OC)c3Cl)cc3[nH]ncc23)n1 [Compound 11a, 6-(2,6-Dichloro-3,5-dimethoxyphenyl)-N-(6-methoxypyridin-2-yl)-1H-indazole-4-carboxamide] |  | 47.2 | 79.2 |  | 
COc1cc(NC(=O)c2cc(-c3c(Cl)c(OC)cc(OC)c3Cl)cc3[nH]ncc23)ccn1 [Compound 11b, 6-(2,6-Dichloro-3,5-dimethoxyphenyl)-N-(2-methoxypyridin-4-yl)-1H-indazole-4-carboxamide] |  | 49.5 | 84.3 |  | 
COc1ccnc(NC(=O)c2cc(-c3c(Cl)c(OC)cc(OC)c3Cl)cc3[nH]ncc23)c1 [Compound 11c, 6-(2,6-Dichloro-3,5-dimethoxyphenyl)-N-(4-methoxypyridin-2-yl)-1H-indazole-4-carboxamide] |  | 42.3 | 80 |  | 
COc1cc(NC(=O)c2cc(-c3c(Cl)c(OC)cc(OC)c3Cl)cc3[nH]ncc23)ncn1 [Compound 11d, 6-(2,6-Dichloro-3,5-dimethoxyphenyl)-N-(6-methoxypyrimidin-4-yl)-1H-indazole-4-carboxamide] |  | 43.1 | 78.5 |  | 
COc1nccc(NC(=O)c2cc(-c3c(Cl)c(OC)cc(OC)c3Cl)cc3[nH]ncc23)n1 [Compound 11e, 6-(2,6-Dichloro-3,5-dimethoxyphenyl)-N-(2-methoxypyrimidin-4-yl)-1H-indazole-4-carboxamide] |  | 31 | 57.4 |  | 
COC(=O)c1cccc(NC(=O)c2cc(-c3c(Cl)c(OC)cc(OC)c3Cl)cc3[nH]ncc23)c1 [Compound 12a, Methyl 3-(6-(2,6-dichloro-3,5-dimethoxyphenyl)-1H-indazole-4-carboxamido)benzoate] | 17.1 | 35.7 |  |  | 
CNC(=O)c1cccc(NC(=O)c2cc(-c3c(Cl)c(OC)cc(OC)c3Cl)cc3[nH]ncc23)c1 [Compound 12b, 6-(2,6-Dichloro-3,5-dimethoxyphenyl)-N-(3-(methylcarbamoyl)phenyl)-1H-indazole-4-carboxamide] | 42.1 | 62.3 |  | 38.6 ± 0.2 nM | 155 to 157
CCOC(=O)c1cccc(NC(=O)c2cc(-c3c(Cl)c(OC)cc(OC)c3Cl)cc3[nH]ncc23)c1 [Compound 12c, Ethyl 3-(6-(2,6-dichloro-3,5-dimethoxyphenyl)-1H-indazole-4-carboxamido)benzoate] | 9.9 | 36.8 |  |  | 
COc1cc(OC)c(Cl)c(-c2cc(C(=O)Nc3cccc([N+](=O)[O-])c3)c3cn[nH]c3c2)c1Cl [Compound 12d, 6-(2,6-Dichloro-3,5-dimethoxyphenyl)-N-(3-nitrophenyl)-1H-indazole-4-carboxamide] | 17.4 | 31.6 |  |  | 
COc1cc(OC)c(Cl)c(-c2cc(C(=O)Nc3cccc(N4CCN(C)C4=O)c3)c3cn[nH]c3c2)c1Cl [Compound 12e, 6-(2,6-Dichloro-3,5-dimethoxyphenyl)-N-(3-(3-methyl-2-oxoimidazolidin-1-yl)phenyl)-1H-indazole-4-carboxamide] | 17.2 | 36.7 |  |  | 
COc1cc(OC)c(Cl)c(-c2cc(C(=O)Nc3cccc(N4CCOCC4)c3)c3cn[nH]c3c2)c1Cl [Compound 12f, 6-(2,6-Dichloro-3,5-dimethoxyphenyl)-N-(3-morpholinophenyl)-1H-indazole-4-carboxamide] | 28.3 | 58.7 |  | 54 ± 8.7 nM | 159 to 161
COc1cc(OC)c(Cl)c(-c2cc(C(=O)Nc3cccc(N4CCNCC4)c3)c3cn[nH]c3c2)c1Cl [Compound 12g, 6-(2,6-Dichloro-3,5-dimethoxyphenyl)-N-(3-(piperazin-1-yl)phenyl)-1H-indazole-4-carboxamide] | 45.1 | 60.9 |  | 78.8 ± 14.2 nM | 221 to 223
COc1cc(OC)c(Cl)c(-c2cc(C(=O)Nc3cccc(-c4cnn(C)c4)c3)c3cn[nH]c3c2)c1Cl [Compound 12h, 6-(2,6-Dichloro-3,5-dimethoxyphenyl)-N-(3-(1-methyl-1H-pyrazol-4-yl)phenyl)-1H-indazole-4-carboxamide] | 34.5 | 52.7 |  | 102.9 ± 0.6 nM | 188 to 190
COc1cc(OC)c(Cl)c(-c2cc(C(=O)Nc3cccc(-c4cncnc4)c3)c3cn[nH]c3c2)c1Cl [Compound 12i, 6-(2,6-Dichloro-3,5-dimethoxyphenyl)-N-(3-(pyrimidin-5-yl)phenyl)-1H-indazole-4-carboxamide] | 35.1 | 60.3 |  | 86.2 ± 17 nM | 177 to 179
COc1cc(OC)c(Cl)c(-c2cc(C(=O)Nc3cccc(N4CCN(C)CC4)c3)c3cn[nH]c3c2)c1Cl [Compound 13a, 6-(2,6-Dichloro-3,5-dimethoxyphenyl)-N-(3-(4-methylpiperazin-1-yl)phenyl)-1H-indazole-4-carboxamide] | 48.3 | 72.7 |  | ~30.2 nM and 30.2 nM | 205 to 207
CCN1CCN(c2cccc(NC(=O)c3cc(-c4c(Cl)c(OC)cc(OC)c4Cl)cc4[nH]ncc34)c2)CC1 [Compound 13b, 6-(2,6-Dichloro-3,5-dimethoxyphenyl)-N-(3-(4-ethylpiperazin-1-yl)phenyl)-1H-indazole-4-carboxamide] | 13.7 | 26.4 |  | 328 ± 65.7 nM | 
C=CCN1CCN(c2cccc(NC(=O)c3cc(-c4c(Cl)c(OC)cc(OC)c4Cl)cc4[nH]ncc34)c2)CC1 [Compound 13c, N-(3-(4-Allylpiperazin-1-yl)phenyl)-6-(2,6-dichloro-3,5-dimethoxyphenyl)-1H-indazole-4-carboxamide] | 35.7 | 41.3 |  | 464 ± 99.1 nM | 
COc1cc(OC)c(Cl)c(-c2cc(C(=O)Nc3cccc(N4CCN(C(C)C)CC4)c3)c3cn[nH]c3c2)c1Cl [Compound 13d, 6-(2,6-Dichloro-3,5-dimethoxyphenyl)-N-(3-(4-isopropylpiperazin-1-yl)phenyl)-1H-indazole-4-carboxamide] | 7.2 | 18.5 |  |  | 
COc1cc(OC)c(Cl)c(-c2cc(C(=O)Nc3cccc(N4CCN(C(C)=O)CC4)c3)c3cn[nH]c3c2)c1Cl [Compound 13e, N-(3-(4-Acetylpiperazin-1-yl)phenyl)-6-(2,6-dichloro-3,5-dimethoxyphenyl)-1H-indazole-4-carboxamide] | 27.7 | 64.7 |  | 118 ± 3.9 nM | 209 to 211
